# In PubChem BioAssay AID2060350 (Molecular Pharmacology Branch, DTP, NCI, 2025):
# Values joined by “and” are separate entries in the source; they are usually repeats but may differ in a detail not shown here. Identical values can stand only once.
# Test system: PDC 521955-158-R6-J3 spheroids, viability
# Assay: Anticancer human tumor 521955-158-R6-J3-PDC patient-derived pancreatic carcinoma cell line growth inhibition [TAK]
# Conditions: spheroids with HUVEC and MSC; for viability, T/C: stronger effect = lower value
# Excerpt: Combinatorial screen of targeted agents with TAK-243 and ipatasertib in multi-cell type tumor spheroids
# A high-throughput screen of multi-cell type tumor spheroids was designed to identify active combinations of targeted small molecules and TAK-243 or ipatasertib. Complex spheroids include a stromal component modeled by human endothelial cells (HUVEC) and fibroblasts modeled by human mesenchymal stem cells (MSCs). The concentration ranges selected for each drug and investigational agent were based upon clinically achievable concentrations if the clinical Cmax of the agent was known.
# Compounds. The drugs and investigational agents: TAK-243 (785004), ipatasertib (767898), everolimus (733504), selumetinib (741078), bortezomib (756655), trametinib (758246), ixazomib (758254), vemurafenib (761431), dabrafenib (764134), sapanisertib (764658), alpelisib (765974), and copanlisib (816437), were obtained from the National Cancer Institute (NCI) Developmental Therapeutics Program Chemical Repository. The FDA-approved anticancer drug set is available from the NCI Developmental Therapeutics Program. […] The stock solutions were prepared in dimethyl sulfoxide (DMSO, Sigma-Aldrich, St. Louis, MO, cat. D2650) at 800-fold the tested concentration and stored at -70 degrees C prior to their use. All drugs and investigational agents were tested over a range starting from a high concentration at or near the clinical Cmax and decreasing in half-log increments. If the clinical Cmax for an agent had not been determined, the highest concentration tested was 10 microM.
# NCI60 Cell Culture. NCI60 cell lines were obtained from the NCI Developmental Therapeutics Program Tumor Repository. For each lot of cells, the Repository performed Applied Biosystems AmpFLSTR Identifiler testing with PCR amplification to confirm consistency with the published Identifier STR profile for each cell line. Cells were kept in continuous culture for no more than 20 passages. The optimal seeding densities for each of the cell lines at each time point assessed were determined prior to performing the concentration response studies. Briefly, the NCI60 human tumor lines were grown as monolayers in RPMI 1640 medium supplemented with 10% FBS and 2 mmol/L L-glutamine.
# An additional 2 lines were from the NCI60 cell line panel including melanomas, MALME-3M and SK-MEL-2. Pooled donor human umbilical vein endothelial cells (HUVEC, Lonza, cat. CC-2519) and human mesenchymal stem cells (hMSC, Lonza, cat. PT-2501) were purchased from Lonza (Walkersville, MD).
# PDMR cell lines were grown in complete medium (DC medium): Dulbecco's modified Eagle's medium (DMEM)/F12 supplemented with 5% fetal bovine serum (FBS), 2 mM L-glutamine, 100 U/mL penicillin and 100 µg/ml streptomycin, 0.4 µg/ml hydrocortisone, 10 ng/ml epidermal growth factor (EGF) recombinant human protein, 24 µg/mL adenine, and 0.1 mg/mL primocin. During culture from frozen stock vials, PDMR cells were cultured in the same medium containing 10 µM Y-27632 (see Table 3). The PDCs were cultured in complete DMEM/F12 media without 10 microM Y-27632 dihydrochloride for at least two passages prior to the screen. The pooled donor HUVEC and hMSC were cultured in endothelial cell growth medium 2 (PromoCell, Heidelberg, Germany, cat. C-22011) and mesenchymal stem cell growth medium 2 (PromoCell, cat. C-28009), respectively. For all experiments, HUVEC and hMSC were used at passages </=5.
# For the pre-screen, cell seeding densities were determined from a titration spanning the range from 5,000 to 313 cells per well. The mct-spheroids including 60% malignant cells, 25% HUVEC and 15% MSC dispensed as a mixture into U-bottom Ultra-Low Attachment 384-well plates (Corning, NY)
# High-throughput Drug Combination Screening.
# Prior to their inoculation into 384-well plates, malignant cells, HUVEC, and hMSC were removed from T flasks using TrypLE express (Thermo Fisher Scientific, cat. 12605036) and harvested by centrifugation for 5 min at 233 x g. […]
# 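Also: spheroids exposed to drugs for 7 days before readout.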
# 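For viability, T/C in this document: 100% = DMSO vehicle control viability.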
Structure (SMILES),IC50 (curve of compound),"viability, T/C (compound 0.0316 µM)","viability, T/C (compound 0.1 µM)","viability, T/C (compound 0.316 µM)","viability, T/C (compound 1 µM)","viability, T/C (compound 0.000316 µM)","viability, T/C (compound 0.001 µM)","viability, T/C (compound 0.00316 µM)","viability, T/C (compound 0.01 µM)",further results
CC(C)(C)c1nc(-c2cccc(NS(=O)(=O)c3c(F)cccc3F)c2F)c(-c2ccnc(N)n2)s1,> 10000 nM,111% and 97.3%,121% and 111%,135% and 114%,116% and 111%,–,–,–,–,"viability, T/C (compound 3.16 µM): 108% and 98.3%; viability, T/C (compound 10 µM): 139% and 118%"
CC(C)NCC(C(=O)N1CCN(c2ncnc3c2C(C)CC3O)CC1)c1ccc(Cl)cc1 (stereo not drawn),–,–,–,–,–,–,–,–,–,"viability, T/C (compound 0.3 µM): 93.8% [middle of 10 runs]; IC50 (compound alone, run of 02/20/2020): > 30000 nM; IC50 (compound alone, run of 03/19/2020): > 30000 nM"
CC(C)n1nc(-c2ccc3oc(N)nc3c2)c2c(N)ncnc21,> 100 nM,83.2% and 81.7%,73.8% and 70.4%,–,–,93.6% and 99.9%,95% and 91.3%,86% and 98.5%,85.3% and 94.8%,–
COC1CC2CCC(C)C(O)(O2)C(=O)C(=O)N2CCCCC2C(=O)OC(C(C)CC2CCC(OCCO)C(OC)C2)CC(=O)C(C)C=C(C)C(O)C(OC)C(=O)C(C)CC(C)C=CC=CC=C1C (stereo not drawn),> 100 nM,84.9% and 90.9%,84.3% and 82.4%,–,–,93.2% and 99%,107% and 78.7%,105% and 85.4%,100% and 94.5%,–
COc1c(OCCCN2CCOCC2)ccc2c3n(c(=NC(=O)c4cnc(N)nc4)nc12)CCN3,76.2 nM and 28.1 nM,61.2% and 49.2%,47.5% and 35.9%,30.7% and 23.5%,23.3% and 18.5%,–,–,85.3% and 76.8%,79.2% and 62.1%,–
Cc1nc(NC(=O)N2CCCC2C(N)=O)sc1-c1ccnc(C(C)(C)C(F)(F)F)c1 (stereo not drawn),> 10000 nM,82.3% and 93.5%,87.3% and 82%,73.3% and 81.9%,68.2% and 77.4%,–,–,–,–,"viability, T/C (compound 3.16 µM): 72.5% and 67%; viability, T/C (compound 10 µM): 58.3% and 54.9%"

# The next lines start with results.
IC50 (curve of compound),Structure (SMILES),"viability, T/C (compound 0.0316 µM)","viability, T/C (compound 0.1 µM)","viability, T/C (compound 0.316 µM)","viability, T/C (compound 1 µM)","viability, T/C (compound 0.000316 µM)","viability, T/C (compound 0.001 µM)","viability, T/C (compound 0.00316 µM)","viability, T/C (compound 0.01 µM)",further results
26.2 nM and 29.5 nM,CC(=O)Nc1cccc(-n2c(=O)n(C3CC3)c(=O)c3c(Nc4ccc(I)cc4F)n(C)c(=O)c(C)c32)c1,–,–,–,–,–,–,–,–,"viability, T/C (compound 94.9 pM): 98.2% and 112%; viability, T/C (compound 0.0003 µM): 100% and 90.8%; viability, T/C (compound 0.000949 µM): 98.2% and 92.1%; viability, T/C (compound 0.003 µM): 94.2% and 82%; viability, T/C (compound 0.00949 µM): 72.4% and 68.3%; viability, T/C (compound 0.03 µM): 47% and 47.1%"
7.56 nM and > 10 nM,CC(C)CC(NC(=O)C(Cc1ccccc1)NC(=O)c1cnccn1)B(O)O (stereo not drawn),–,–,–,–,91.6% and 103%,108% and 93.6%,111% and 87.4%,33.2% and 102%,"viability, T/C (compound 31.6 pM): 101% and 120%; viability, T/C (compound 0.0001 µM): 97.6% and 107%"
49.8 nM and 46.2 nM,CC(C)CC(NC(=O)CNC(=O)c1cc(Cl)ccc1Cl)B1OC(=O)CC(CC(=O)O)(C(=O)O)O1 (stereo not drawn),75.9% and 69.7%,10.2% and 9.97%,–,–,105% and 101%,101% and 102%,110% and 100%,114% and 107%,–
> 100000 nM,CCCS(=O)(=O)Nc1ccc(F)c(C(=O)c2c[nH]c3ncc(-c4ccc(Cl)cc4)cc23)c1F,–,–,92.9% and 82.9%,101% and 67%,–,–,–,–,"viability, T/C (compound 3.16 µM): 88.1% and 85%; viability, T/C (compound 10 µM): 101% and 75%; viability, T/C (compound 31.6 µM): 109% and 51.8%; viability, T/C (compound 100 µM): 99.2% and 114%"
1800 nM and > 3000 nM,Cn1cnc2c(F)c(Nc3ccc(Br)cc3Cl)c(C(=O)NOCCO)cc21,–,–,–,–,–,–,–,–,"viability, T/C (compound 0.00949 µM): 99.2% and 99.6%; viability, T/C (compound 0.03 µM): 88.9% and 88%; viability, T/C (compound 0.0949 µM): 77.6% and 83%; viability, T/C (compound 0.3 µM): 85.5% and 82.2%; viability, T/C (compound 0.949 µM): 56.9% and 70.8%; viability, T/C (compound 3 µM): 41.5% and 53.7%"
